# Columns and labels:
# Type in all cases: functional
# [1] = test system: Enterococcus faecalis; experiment: Antibacterial activity against Enterococcus faecalis ATCC 29212 after 18 to 24 hrs
# [2] = test system: Pseudomonas aeruginosa; experiment: Antibacterial activity against Pseudomonas aeruginosa ATCC 27853 after 18 to 24 hrs
# [3] = test system: Escherichia coli; experiment: Antibacterial activity against Escherichia coli ATCC 25922 after 18 to 24 hrs
# [4] = test system: Staphylococcus aureus; experiment: Antibacterial activity against Staphylococcus aureus ATCC 29213 after 18 to 24 hrs
# [5] = test system: Staphylococcus aureus; experiment: Antibacterial activity against methicillin-resistant Staphylococcus aureus ATCC 43300 after 18 to 24 hrs
# [6] = test system: Streptococcus pneumoniae; experiment: Antibacterial activity against Streptococcus pneumoniae ATCC 49619 after 18 to 24 hrs
# [7] = test system: Streptococcus pyogenes; experiment: Antibacterial activity against Streptococcus pyogenes ATCC 19615 after 18 to 24 hrs
SMILES,MIC [1],MIC [2],MIC [3],MIC [4],MIC [5],MBC [6],MBC [7]
COc1cc(/C=C2\SC(=S)N(CC(=O)O)C2=O)cc(OC)c1OC,> 128 µg/mL,> 128 µg/mL,> 128 µg/mL,> 128 µg/mL,–,–,–
O=C1NC(=S)S/C1=C\CC1Oc2ccccc2N(Cc2ccc(Cl)cc2)C1=O (stereo not drawn),> 128 µg/mL,> 128 µg/mL,> 128 µg/mL,32 µg/mL,–,–,–
O=C1NC(=O)C(=Cc2ccc(F)c(F)c2F)C(=O)N1,> 128 µg/mL,> 128 µg/mL,> 128 µg/mL,32 µg/mL,128 µg/mL,–,–
COc1cc(/C=C2\SC(=S)NC2=O)cc(OC)c1OC,> 128 µg/mL,> 128 µg/mL,> 128 µg/mL,8 µg/mL,128 µg/mL,> 128 µg/mL,> 128 µg/mL
Cl.N#Cc1ccc(CN2C(=O)C(CCOc3ccc(CCN)cc3)Oc3ccccc32)cc1 (stereo not drawn),64 µg/mL,–,–,64 µg/mL,–,–,–
N#Cc1ccc(CN2C(=O)C(C/C=C3\SC(=S)NC3=O)Oc3ccccc32)cc1 (stereo not drawn),32 µg/mL,> 128 µg/mL,> 128 µg/mL,32 µg/mL,–,–,–
Cl.NCCc1ccc(OCCC2Oc3ccccc3N(Cc3ccc(Cl)cc3)C2=O)cc1 (stereo not drawn),16 µg/mL,–,–,8 µg/mL,–,–,–
O=C1NC(=S)S/C1=C\c1ccc(O)c(O)c1O,> 128 µg/mL,–,–,> 128 µg/mL,–,–,–
O=C(O)CN1C(=O)/C(=C/c2ccc(F)c(F)c2F)SC1=S,> 128 µg/mL,> 128 µg/mL,> 128 µg/mL,> 128 µg/mL,–,–,–
O=C1NC(=S)S/C1=C\c1ccc(F)c(F)c1F,> 128 µg/mL,> 128 µg/mL,> 128 µg/mL,0.5 µg/mL,32 µg/mL,64 µg/mL,> 128 µg/mL
COc1cc(C=C2C(=O)NC(=S)NC2=O)cc(OC)c1OC,> 128 µg/mL,> 128 µg/mL,> 128 µg/mL,> 128 µg/mL,–,–,–
COc1cc(C=C2C(=O)NC(=O)NC2=O)cc(OC)c1OC,> 128 µg/mL,> 128 µg/mL,> 128 µg/mL,> 128 µg/mL,–,–,–
COc1cc(/C=C2\SC(=O)NC2=O)cc(OC)c1OC,> 128 µg/mL,> 128 µg/mL,> 128 µg/mL,> 128 µg/mL,–,–,–
O=C1NC(=O)/C(=C/c2ccc(F)c(F)c2F)S1,> 128 µg/mL,> 128 µg/mL,> 128 µg/mL,32 µg/mL,64 µg/mL,–,–
